“And” between values parts separate entries of the source, which are not always exact repeats. Equal values may be shown once.
Legend:
hCB1R = molecular target: T1, hCB1R (Homo sapiens, UniProt P21554); assay: Inhibition of CP55,940-induced [35S]GTPγS binding in hCB1R-CHO-K1 cell membranes; assay type: biochemical; details: for [35S]GTPγS binding, % basal response / [35S]GTPγS binding, cpm values: averages of Experiments 1-4
T1 construct: purchased Revvity ES-110-M400UA; host or cells: CHO-K1 (recombinant hCB1R), membranes
T1 sequence (P21554 whole entry): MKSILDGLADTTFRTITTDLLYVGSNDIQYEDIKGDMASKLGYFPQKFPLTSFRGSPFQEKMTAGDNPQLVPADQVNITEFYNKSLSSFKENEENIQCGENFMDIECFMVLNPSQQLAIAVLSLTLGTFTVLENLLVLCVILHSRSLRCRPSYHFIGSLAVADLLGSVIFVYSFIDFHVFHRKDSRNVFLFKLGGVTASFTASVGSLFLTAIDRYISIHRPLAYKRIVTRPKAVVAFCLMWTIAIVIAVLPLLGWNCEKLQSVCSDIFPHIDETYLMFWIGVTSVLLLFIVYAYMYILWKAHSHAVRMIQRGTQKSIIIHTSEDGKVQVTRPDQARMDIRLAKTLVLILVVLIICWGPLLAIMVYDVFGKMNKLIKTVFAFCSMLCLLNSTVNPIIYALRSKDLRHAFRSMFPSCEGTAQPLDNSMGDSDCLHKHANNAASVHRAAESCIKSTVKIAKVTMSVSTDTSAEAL
Description: The inhibitory potencies of the antagonists in G protein signaling were measured as described previously. […] GTPγS binding at the ~EC80 level. hCB1R-CHO-K1 cell membrane (4 μg) (Revvity, ES-110-M400UA) was incubated with 0.05 nM [^35S]GTPγS (Revvity) and the indicated concentrations of ligands in TEM buffer (50 mM Tris-HCl, 0.2 mM EGTA, and 9 mM MgCl2, pH 7.4) containing 100 µM GDP, 150 mM NaCl, and 0.1% (w/v) bovine serum albumin in a total volume of 1 ml for 60 min at 30 °C. […] Agonist-stimulated [^35S]GTPγS binding was expressed as the percent of increase over baseline. Bound and free [^35S]GTPγS levels were separated by vacuum filtration through Whatman GF/B filters using a Brandel M24 Cell Harvester (Gaithersburg, MD). Filters were washed with 3 × 5-ml of ice-cold buffer, and radioactivity was detected by scintillation spectrometry (LS6500; Beckman Coulter). Dose-response curves were generated in the presence of increasing concentrations of antagonists. Concentration-response relationships were analyzed by fitting the data to the three-parameter model ‘log(agonist) vs response’ in GraphPad Prism 10.

hCNR1 = molecular target: T2, hCNR1 (Homo sapiens, UniProt P21554); assay: Inhibition of CP55,940-induced β-arrestin-2 recruitment, PathHunter eXpress CNR1 CHO-K1 assay; assay type: cell-based; details: for β-arrestin-2 recruitment, lum values: averages of single experiments
T2 construct: host or cells: CHO-K1 (PathHunter eXpress CNR1 β-arrestin-2, purchased recombinant cell line)
T2 sequence (P21554 whole entry): as above
Description: The inhibitory potencies of the antagonists in β-arrestin-2 signaling was measured using the DiscoverX β-arrestin-2 recruitment assay for hCNR1 (Eurofins, catalog # 93-0959E2CP). The assay was performed following supplier’s instructions. […] Concentration-response relationships were analyzed by fitting the data to the three-parameter model ‘log(agonist) vs response’ in GraphPad Prism 10.

[1] = 300 nM CP55,940 + 0.001 nM antagonist
[2] = 300 nM CP55,940 + 0.01 nM antagonist
[3] = 300 nM CP55,940 + 0.1 nM antagonist
[4] = 300 nM CP55,940 + 1 nM antagonist
[5] = 300 nM CP55,940 + 10 nM antagonist
[6] = 300 nM CP55,940 + 100 nM antagonist
[7] = 300 nM CP55,940 + 1000 nM antagonist
[8] = 25 nM CP55,940 + 0.001 nM antagonist
[9] = 25 nM CP55,940 + 0.01 nM antagonist
[10] = 25 nM CP55,940 + 0.1 nM antagonist
[11] = 25 nM CP55,940 + 0.3 nM antagonist
[12] = 25 nM CP55,940 + 1 nM antagonist
[13] = 25 nM CP55,940 + 3 nM antagonist
[14] = 25 nM CP55,940 + 10 nM antagonist
[15] = 25 nM CP55,940 + 30 nM antagonist
[16] = 25 nM CP55,940 + 100 nM antagonist
[17] = 25 nM CP55,940 + 300 nM antagonist
[18] = 25 nM CP55,940 + 1000 nM antagonist

SMILES: C[C@H](NC(=O)C(C)(C)Oc1ccc(C(F)(F)F)cn1)[C@@H](Cc1ccc(Cl)cc1)c1cccc(C#N)c1 [Taranabant, reference compound]
- [35S]GTPγS binding, normalized % response, MEAN (hCB1R; [1]): 100%
- [35S]GTPγS binding, % basal response (hCB1R; [1]): 260% and 247% and 256% and 275%
- [35S]GTPγS binding, cpm values (hCB1R; [1]): 1546 cpm and 1640 cpm
- [35S]GTPγS binding, normalized % response, MEAN (hCB1R; [2]): 101%
- [35S]GTPγS binding, % basal response (hCB1R; [2]): 278% and 253% and 259% and 254%
- [35S]GTPγS binding, cpm values (hCB1R; [2]): 1632 cpm and 1577 cpm and 1655 cpm and 1540 cpm
- [35S]GTPγS binding, normalized % response, MEAN (hCB1R; [3]): 99%
- [35S]GTPγS binding, % basal response (hCB1R; [3]): 269% and 255% and 232% and 271%
- [35S]GTPγS binding, cpm values (hCB1R; [3]): 1592 cpm and 1586 cpm and 1518 cpm and 1620 cpm
- [35S]GTPγS binding, normalized % response, MEAN (hCB1R; [4]): 61%
- [35S]GTPγS binding, % basal response (hCB1R; [4]): 183% and 180% and 157% and 186%
- [35S]GTPγS binding, cpm values (hCB1R; [4]): 1183 cpm and 1210 cpm and 1140 cpm and 1218 cpm
- [35S]GTPγS binding, normalized % response, MEAN (hCB1R; [5]): 23%
- [35S]GTPγS binding, % basal response (hCB1R; [5]): 97% and 108% and 77% and 106%
- [35S]GTPγS binding, cpm values (hCB1R; [5]): 770 cpm and 853 cpm and 733 cpm and 843 cpm
- [35S]GTPγS binding, normalized % response, MEAN (hCB1R; [6]): 4.38%
- [35S]GTPγS binding, % basal response (hCB1R; [6]): 55% and 61% and 50% and 64%
- [35S]GTPγS binding, cpm values (hCB1R; [6]): 573 cpm and 615 cpm and 594 cpm and 643 cpm
- [35S]GTPγS binding, normalized % response, MEAN (hCB1R; [7]): 0%
- [35S]GTPγS binding, % basal response (hCB1R; [7]): 51% and 43% and 48%
- [35S]GTPγS binding, cpm values (hCB1R; [7]): 551 cpm and 566 cpm and 559 cpm and 569 cpm
- β-arrestin-2 recruitment, normalized % response, MEAN (hCNR1; [8]): 100%
- β-arrestin-2 recruitment, lum values (hCNR1; [8]): 18372 lum and 18832 lum and 19264 lum
- β-arrestin-2 recruitment, normalized % response, MEAN (hCNR1; [9]): 103%
- β-arrestin-2 recruitment, lum values (hCNR1; [9]): 18512 lum and 19404 lum and 19658 lum
- β-arrestin-2 recruitment, normalized % response, MEAN (hCNR1; [10]): 93%
- β-arrestin-2 recruitment, lum values (hCNR1; [10]): 17743 lum and 17133 lum and 18279 lum
- β-arrestin-2 recruitment, normalized % response, MEAN (hCNR1; [11]): 82%
- β-arrestin-2 recruitment, lum values (hCNR1; [11]): 14976 lum and 16754 lum and 16533 lum
- β-arrestin-2 recruitment, normalized % response, MEAN (hCNR1; [12]): 68%
- β-arrestin-2 recruitment, lum values (hCNR1; [12]): 13162 lum and 13787 lum and 14480 lum
- β-arrestin-2 recruitment, normalized % response, MEAN (hCNR1; [13]): 29%
- β-arrestin-2 recruitment, lum values (hCNR1; [13]): 7347 lum and 7603 lum and 8539 lum
- β-arrestin-2 recruitment, normalized % response, MEAN (hCNR1; [14]): 9%
- β-arrestin-2 recruitment, lum values (hCNR1; [14]): 4145 lum and 4621 lum and 5550 lum
- β-arrestin-2 recruitment, normalized % response, MEAN (hCNR1; [15]): 10%
- β-arrestin-2 recruitment, lum values (hCNR1; [15]): 4284 lum and 4671 lum and 5727 lum
- β-arrestin-2 recruitment, normalized % response, MEAN (hCNR1; [16]): 10%
- β-arrestin-2 recruitment, lum values (hCNR1; [16]): 4501 lum and 4565 lum and 5759 lum
- β-arrestin-2 recruitment, normalized % response, MEAN (hCNR1; [17]): 11%
- β-arrestin-2 recruitment, lum values (hCNR1; [17]): 4670 lum and 4722 lum and 5843 lum
- β-arrestin-2 recruitment, normalized % response, MEAN (hCNR1; [18]): 0%
- β-arrestin-2 recruitment, lum values (hCNR1; [18]): 2971 lum and 2809 lum and 4191 lum
- bias: difference in IC50, G protein ([35S]GTPγS) versus β-arrestin2 (hCNR1; human CB1R-containing cell membranes): no apparent bias

Source: paper PMC11655885, “Structural mechanism of CB1R binding to peripheral and biased inverse agonists” (Nature Communications, 2024)
